In this experiment the target is T1, SMARCA2 (Homo sapiens, UniProt P51531).
T1 construct: endogenous in cells
Briefly: SMARCA2 HiBiT degradation assay (cellular). The following applies: for Emax: A549, Emax = amount of residual protein remaining in the cell following compound treatment; for DC50: SMARCA2 HiBiT cells, luminescence readout, 11-point titration from 10 μM, 6 hours or 16 hours, read-out: HiBit A549 SMARCA2 IP. The experiment is classed as cell-based. On the technique in general: With HiBiT, luminescence reflects the tagged protein that the partner subunit can reach.

T1 sequence (P51531 whole entry): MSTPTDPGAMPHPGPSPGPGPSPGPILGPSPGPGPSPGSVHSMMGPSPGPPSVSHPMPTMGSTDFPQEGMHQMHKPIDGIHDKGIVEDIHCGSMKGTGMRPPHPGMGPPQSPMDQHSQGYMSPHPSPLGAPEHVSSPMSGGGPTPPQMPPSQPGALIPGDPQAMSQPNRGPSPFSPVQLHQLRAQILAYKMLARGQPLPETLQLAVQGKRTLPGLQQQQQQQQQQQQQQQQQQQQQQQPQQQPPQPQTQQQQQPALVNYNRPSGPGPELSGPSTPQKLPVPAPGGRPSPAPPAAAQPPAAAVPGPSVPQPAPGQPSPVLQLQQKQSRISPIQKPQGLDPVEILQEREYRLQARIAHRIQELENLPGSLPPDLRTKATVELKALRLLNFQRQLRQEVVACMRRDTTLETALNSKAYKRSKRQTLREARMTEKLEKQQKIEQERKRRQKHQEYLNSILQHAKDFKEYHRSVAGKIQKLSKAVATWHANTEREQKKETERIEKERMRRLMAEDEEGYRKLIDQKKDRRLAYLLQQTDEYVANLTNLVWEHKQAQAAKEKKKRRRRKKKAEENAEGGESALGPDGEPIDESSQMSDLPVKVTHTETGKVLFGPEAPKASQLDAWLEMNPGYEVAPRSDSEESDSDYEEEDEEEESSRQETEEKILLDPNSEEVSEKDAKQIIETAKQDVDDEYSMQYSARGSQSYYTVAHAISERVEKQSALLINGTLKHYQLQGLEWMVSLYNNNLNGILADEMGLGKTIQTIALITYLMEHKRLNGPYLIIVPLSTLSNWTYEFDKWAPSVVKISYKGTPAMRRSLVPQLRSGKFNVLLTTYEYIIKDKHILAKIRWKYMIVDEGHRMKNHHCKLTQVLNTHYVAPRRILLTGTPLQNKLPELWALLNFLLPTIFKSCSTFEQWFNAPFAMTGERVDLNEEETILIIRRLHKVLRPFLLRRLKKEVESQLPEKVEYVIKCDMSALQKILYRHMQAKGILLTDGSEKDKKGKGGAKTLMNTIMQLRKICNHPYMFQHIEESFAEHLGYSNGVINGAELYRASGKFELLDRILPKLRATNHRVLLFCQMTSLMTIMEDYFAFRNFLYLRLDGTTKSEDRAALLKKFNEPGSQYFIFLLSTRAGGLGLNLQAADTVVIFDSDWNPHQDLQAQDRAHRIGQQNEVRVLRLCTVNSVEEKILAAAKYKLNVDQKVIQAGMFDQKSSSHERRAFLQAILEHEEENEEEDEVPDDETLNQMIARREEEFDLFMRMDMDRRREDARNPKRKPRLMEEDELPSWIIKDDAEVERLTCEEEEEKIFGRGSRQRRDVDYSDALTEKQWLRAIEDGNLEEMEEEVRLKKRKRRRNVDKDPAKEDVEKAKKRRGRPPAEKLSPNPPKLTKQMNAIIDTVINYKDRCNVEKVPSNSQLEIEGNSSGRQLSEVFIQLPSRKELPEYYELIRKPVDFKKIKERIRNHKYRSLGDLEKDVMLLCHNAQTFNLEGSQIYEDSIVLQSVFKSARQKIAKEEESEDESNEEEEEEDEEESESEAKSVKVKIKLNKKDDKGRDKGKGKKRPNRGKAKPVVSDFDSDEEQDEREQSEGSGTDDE

Take `Cc1ncsc1-c1ccc(CNC(=O)[C@@H]2C[C@@H](O)CN2C(=O)[C@@H](NC(=O)CCCCCC(=O)NC(COc2cc(-c3ccccc3O)nnc2N)c2ccccc2)C(C)(C)C)cc1` (mixture of isomers) [Example 62, N-[2-[3-amino-6-(2-hydroxyphenyl)pyridazin-4-yl]oxy-1-phenyl-ethyl]-N′-[rac-(1S)-2,2-dimethyl-1-[rac-(2S,4R)-4-hydroxy-2-[[4-(4-methylthiazol-5-yl)phenyl]methylcarbamoyl]pyrrolidine-1-carbonyl]propyl]heptanediamide]: the maximal response (Emax) (usually the size of the effect at its maximum, as opposed to the concentration needed) was 54% and the DC50 stood at 2610 nM.

Regarding `Cc1ncsc1-c1ccc(CNC(=O)[C@@H]2C[C@@H](O)CN2C(=O)[C@@H](NC(=O)CCCCCCCCCC(=O)N2CCN(Cc3cccc(N4C5CCC4CN(c4cc(-c6ccccc6O)nnc4N)C5)c3)CC2)C(C)(C)C)cc1` [Example 7, (2S,4R)-1-[(2S)-2-[[11-[4-[[3-[3-[3-amino-6-(2-hydroxyphenyl)pyridazin-4-yl]-3,8-diazabicyclo[3.2.1]octan-8-yl]phenyl]methyl]piperazin-1-yl]-11-oxo-undecanoyl]amino]-3,3-dimethyl-butanoyl]-4-hydroxy-N-[[4-(4-methylthiazol-5-yl)phenyl]methyl]pyrrolidine-2-carboxamide], the Emax turned out to be 39% and the DC50 amounted to 357 nM.

Turning to `Cc1ncsc1-c1ccc(CNC(=O)[C@@H]2C[C@@H](O)CN2C(=O)[C@@H](NC(=O)CCCCCCCCC(=O)N2C3CCC2CN(c2cc(-c4ccccc4O)nnc2N)C3)C(C)(C)C)cc1` [Example 5, (2S,4R)-1-[(2S)-2-[[10-[3-[3-amino-6-(2-hydroxyphenyl)pyridazin-4-yl]-3,8-diazabicyclo[3.2.1]octan-8-yl]-10-oxo-decanoyl]amino]-3,3-dimethyl-butanoyl]-4-hydroxy-N-[[4-(4-methylthiazol-5-yl)phenyl]methyl]pyrrolidine-2-carboxamide], the maximal response (Emax) came to 31% and the DC50 was found to be 2510 nM.

In the case of `Cc1ncsc1-c1ccc([C@H](C)NC(=O)[C@@H]2C[C@@H](O)CN2C(=O)[C@@H](NC(=O)CCCCCCCCC(=O)N2CCN(Cc3cccc(OC4CN(c5cc(-c6ccccc6O)nnc5N)C4)c3)CC2)C(C)(C)C)cc1` [Example 86, (2S,4R)-1-[(2S)-2-[[10-[4-[[3-[1-[3-amino-6-(2-hydroxyphenyl)pyridazin-4-yl]azetidin-3-yl]oxyphenyl]methyl]piperazin-1-yl]-10-oxo-decanoyl]amino]-3,3-dimethyl-butanoyl]-4-hydroxy-N-[(1S)-1-[4-(4-methylthiazol-5-yl)phenyl]ethyl]pyrrolidine-2-carboxamide], the Emax worked out at 25% and the DC50 was 223 nM.

For `Cc1ncsc1-c1ccc([C@H](C)NC(=O)[C@@H]2C[C@@H](O)CN2C(=O)[C@@H](NC(=O)CCCCCC(=O)N2CCN(Cc3cccc(OC4CN(c5cc(-c6ccccc6O)nnc5N)C4)c3)CC2)C(C)(C)C)cc1` [Example 83, (2S,4R)-1-[(2S)-2-[[7-[4-[[3-[1-[3-amino-6-(2-hydroxyphenyl)pyridazin-4-yl]azetidin-3-yl]oxyphenyl]methyl]piperazin-1-yl]-7-oxo-heptanoyl]amino]-3,3-dimethyl-butanoyl]-4-hydroxy-N-[(1S)-1-[4-(4-methylthiazol-5-yl)phenyl]ethyl]pyrrolidine-2-carboxamide], the maximum response (Emax) was 44% and the DC50 worked out at 789 nM.

Take `Cc1ncsc1-c1ccc([C@H](C)NC(=O)[C@@H]2C[C@@H](O)CN2C(=O)[C@@H](NC(=O)CCCCCCCCCCCCC(=O)N2CCN(CCOc3ccc(N4CCCC(Oc5cc(-c6ccccc6O)nnc5N)C4)cc3)CC2)C(C)(C)C)cc1` (mixture of isomers) [Example 80, rac-(2S,4R)-4-hydroxy-1-[rac-(2S)-2-[[14-[4-[2-[4-[3-[3-amino-6-(2-hydroxyphenyl)pyridazin-4-yl]oxy-1-piperidyl]phenoxy]ethyl]piperazin-1-yl]-14-oxo-tetradecanoyl]amino]-3,3-dimethyl-butanoyl]-N-[rac-(1S)-1-[4-(4-methylthiazol-5-yl)phenyl]ethyl]pyrrolidine-2-carboxamide]: the Emax came out at 25% and the DC50 was 383 nM.

For `Cc1ncsc1-c1ccc([C@H](C)NC(=O)[C@@H]2C[C@@H](O)CN2C(=O)[C@@H](NC(=O)CCCCCCCCCCCCC(=O)N2CCN(CCOc3cccc(N4CCCC(Oc5cc(-c6ccccc6O)nnc5N)C4)c3)CC2)C(C)(C)C)cc1` (mixture of isomers) [Example 81, rac-(2S,4R)-4-hydroxy-1-[rac-(2S)-2-[[14-[4-[2-[3-[3-[3-amino-6-(2-hydroxyphenyl)pyridazin-4-yl]oxy-1-piperidyl]phenoxy]ethyl]piperazin-1-yl]-14-oxo-tetradecanoyl]amino]-3,3-dimethyl-butanoyl]-N-[rac-(1S)-1-[4-(4-methylthiazol-5-yl)phenyl]ethyl]pyrrolidine-2-carboxamide], the Emax is 34% and the DC50 stood at 504 nM.

As for `Cc1ncsc1-c1ccc(CNC(=O)[C@@H]2C[C@@H](O)CN2C(=O)[C@@H](NC(=O)CCCCCCCCC(=O)N2CCN(Cc3cccc(CN4C5CCC4CN(c4cc(-c6ccccc6O)nnc4N)C5)c3)CC2)C(C)(C)C)cc1` [Example 29, (2S,4R)-1-[(2S)-2-[[10-[4-[[3-[[3-[3-amino-6-(2-hydroxyphenyl)pyridazin-4-yl]-3,8-diazabicyclo[3.2.1]octan-8-yl]methyl]phenyl]methyl]piperazin-1-yl]-10-oxo-decanoyl]amino]-3,3-dimethyl-butanoyl]-4-hydroxy-N-[[4-(4-methylthiazol-5-yl)phenyl]methyl]pyrrolidine-2-carboxamide], the Emax is 30% and the DC50 was 1110 nM.

As to `Cc1ncsc1-c1ccc(CNC(=O)[C@@H]2C[C@H](O)CN2C(=O)[C@@H](NC(=O)CCCCCCCC(=O)N2CCC(Cc3cccc(N4C5CCC4CN(c4cc(-c6ccccc6O)nnc4N)C5)c3)CC2)C(C)(C)C)cc1` [Example 13, (2S,4S)-1-[(2S)-2-[[9-[4-[[3-[3-[3-amino-6-(2-hydroxyphenyl)pyridazin-4-yl]-3,8-diazabicyclo[3.2.1]octan-8-yl]phenyl]methyl]-1-piperidyl]-9-oxo-nonanoyl]amino]-3,3-dimethyl-butanoyl]-4-hydroxy-N-[[4-(4-methylthiazol-5-yl)phenyl]methyl]pyrrolidine-2-carboxamide], the Emax turned out to be 28% and the DC50 came to 954 nM.

As to `Cc1ncsc1-c1ccc([C@H](C)NC(=O)[C@@H]2C[C@@H](O)CN2C(=O)[C@@H](NC(=O)CCCCCC(=O)N2CCN(CCOc3cccc(CCOc4cc(-c5ccccc5O)nnc4N)c3)CC2)C(C)(C)C)cc1` [Example 57, (2S,4R)-1-[(2S)-2-[[7-[4-[2-[3-[2-[3-amino-6-(2-hydroxyphenyl)pyridazin-4-yl]oxyethyl]phenoxy]ethyl]piperazin-1-yl]-7-oxo-heptanoyl]amino]-3,3-dimethyl-butanoyl]-4-hydroxy-N-[(1S)-1-[4-(4-methylthiazol-5-yl)phenyl]ethyl]pyrrolidine-2-carboxamide], the Emax amounted to 35% and the DC50 was 736 nM.

The record behind these values is patent publication US20230002367A1, “BIFUNCTIONAL COMPOUNDS” (Hoffmann-La Roche Inc., priority 2019, published 2023).
